Assay results published in patent publication US20180042867A1, “METHODS OF TREATING CANCER” (Mitchell Woods Pharmaceuticals, Inc., priority 2015, published 2018).

Tests used:
PANC-1 cells [1] = settings: cited from earlier work
PANC-1 = assay: Proliferation in pancreatic cancer (PancCA) cell lines; format: cell-based, human; settings: including PANC-1
PANC-1 cells [2] = assay: Untargeted metabolomics (1D 1H NMR) of intracellular metabolome; format: cell-based, human; settings: PANC-1, MNF 1 μM
Procedure: (§1) The cells were seeded on 100×20 mm tissue culture plates and maintained at 37° C. under humidified 5% CO2 in air until they reached >70% confluence. The original media was replaced with media containing 0.5 μM or 1 μM MNF and the plates were incubated for an additional 1 hour, unless otherwise indicated. After completion of incubations, the media was aspirated and the cells were washed twice with 10 ml of phosphate buffer saline (pH 7.4) (PBS). The cells were then collected in 10 ml PBS by scrapping and sedimented by centrifugation (1000 rpm, 5 min), and the supernatant discarded. The cell pellets were stored at −80° C. until analyzed.
The cell pellet was re-suspended in 1 ml of 80% methanol (cryogenically cold) and incubated at −80° C. for 15 minutes. This suspension was then centrifuged at 13,000×g for 10 minutes at 4° C. The supernatant was collected in an eppendorf tube and the pellet was suspended in 0.25 ml of water. The suspension was vortexed mixed for 1 minute and centrifuged at 13,000×g for 10 minutes at 4° C. The supernatant was collected and mixed with the supernatant collected in the previously step and stream dried under nitrogen. The sample was stored at −80° C. until analyzed.
Sample Preparation and NMR Analysis—Non-Targeted Metabolomics.
The Cell pellet was re-suspended in 1 ml of 80% methanol (cryogenically cold) and incubated at −80° C. for 15 minutes. This suspension was then centrifuged at 13,000×g for 10 minutes at 4° C. The supernatant was collected in an eppendorf tube and the pellet was suspended in 0.25 ml of water. The suspension was vortexed mixed for 1 minute and centrifuged at 13,000×g for 10 minutes at 4° C. The supernatant was collected and mixed with the supernatant collected in the previously step and stream dried under nitrogen. The sample was stored at −80° C. until analyzed. The samples were prepared for NMR experimentation by dissolving in 0.6 ml of 50 mM phosphate buffer (pH 7.2) in 99.8% D2O with 50 μM 3-(tetramethysilane)propionic acid-2,2,3,3-d4 (TMSP). NMR spectra were recorded on a Bruker Avance III-HD 700 MHz spectrometer equipped with a QCI-P cryoprobe and a SampleJet automated sample changer. 1D ^1H spectra were collected using excitation sculpting to remove the solvent signal. A total of 16 k data points with a spectral width of 5482.5 Hz, 8 dummy scans, and 256 scans were used to obtain each spectrum. The data was processed completely in MVAPACK.
An untargeted metabolomics approach using one-dimensional proton nuclear magnetic resonance (1D ^1H NMR) was used to examine the effect of MNF incubation (1 μM, 1 hour) on the intracellular metabolome of PANC-1 cells.

[3] = system: MDA-MB-231 breast cancer cells; assay: Intracellular lactate, targeted metabolomics (LC/MS); format: cell-based, human; settings: MDA-MB-231, MNF (1 µM), 3 hours
Procedure: as §1, with “analyzed. […]” for “analyzed.”
The cells pellets were suspended in 20 μL water, 10 μL of 0.1 mM p-aminohippuric acid as an internal standard was added and the resulting mixture vortex mixed for 1 minute. […] The supernatant was collected and analysed using a system composed of an Agilent Technologies 1100 LC/MSD equipped with a G1322A degasser, G1312A quaternary pump, G1367A autosampler, G1316A column thermostat and G1946D mass spectrometer supplied with electrospray ionization (ESI). […] The compound of interest were monitored in the positive-ion mode for SIM at m/z 162.1 (carnitine), m/z 90.1 (lactate) and m/z 105.1 (3-hydroxybutyrate). The internal standard was monitored at m/z 195.1 (p-aminohippuric acid). […]

MCF-7 cells [4] = assay: Expression of ABC exporters in MCF-7 cells; format: cell-based, human; settings: incubation with MNF
MDA-MD-231 cells = assay: Expression of ABC exporters in MDA-MB-231 cells; format: cell-based, human; settings: incubation with MNF
Excerpt: See, FIG. 6A. In MDA-MD-231 cells, MNF reduced the expression of P-gp and BCRP while the signal associated with MRP-1 was too faint to detect in the untreated controls as shown in FIG. 6B. As observed in the expression of cyclin D1, the expression of ABC transporters has been associated with EGFR expression and activity and nuclear translocation of PKM2. Thus, the observed effects are consistent with an MNF-associated reduction in EGFR expression and activity through it effect on glycolysis.

MCF-7 cells [5] = settings: by enhancing cytotoxicity of alkylating agents, cisplatin and melphalan; cited from earlier work

O=C(O)C(=O)CBr [3-bromopyruvate]
cellular survival (PANC-1 cells [1]): lowers cellular survival

COc1ccc(C[C@@H](C)NC[C@H](O)c2cc(O)cc(O)c2)c2ccccc12 [MNF, (R,R′)-4′-methoxy-1-naphthylfenoterol]
proliferation (PANC-1): significantly reduce proliferation | relative expression of 3-hydroxybutyrate (PANC-1 cells [2]): increase | signal associated with carnitine (PANC-1 cells [2]): significantly upregulated | signal associated with glycine (PANC-1 cells [2]): significantly upregulated | signal associated with leucine (PANC-1 cells [2]): significantly upregulated | signal associated with lysine (PANC-1 cells [2]): significantly upregulated | signal associated with lactate (PANC-1 cells [2]; vs untreated cells): significantly reduced | reduction in the intracellular concentration of lactate [3]: ~50% | expression of BCRP (MCF-7 cells [4]): significantly reduced | expression of MRP-1 (MCF-7 cells [4]): significantly reduced | expression of P-gp (MCF-7 cells [4]): significantly reduced | expression of BCRP (MDA-MD-231 cells): reduced | expression of P-gp (MDA-MD-231 cells): reduced

O=C(O)c1nn(Cc2ccc(Cl)cc2Cl)c2ccccc12 [lonidamine]
cellular survival (MCF-7 cells [5]): lowers cellular survival
